Measurements from PMC10253498 (RSC Advances, 2023).
“Also recorded” adds a separate entry of the source. Marks after values point to notes of the source that are not given here.

What was measured:
[1] = target: T1, acetyl cholinesterase (AChE) (Homo sapiens, UniProt P22303); settings: for AChE %age inhibition: test concentration not given
[2] = target: T2, monoamine oxidase A (MAO-A, extracted) (Homo sapiens, UniProt P21397); settings: for MAO-A %age inhibition: compounds not above 50% inhibition, test concentration not given
T2 sequence (P21397 1-527): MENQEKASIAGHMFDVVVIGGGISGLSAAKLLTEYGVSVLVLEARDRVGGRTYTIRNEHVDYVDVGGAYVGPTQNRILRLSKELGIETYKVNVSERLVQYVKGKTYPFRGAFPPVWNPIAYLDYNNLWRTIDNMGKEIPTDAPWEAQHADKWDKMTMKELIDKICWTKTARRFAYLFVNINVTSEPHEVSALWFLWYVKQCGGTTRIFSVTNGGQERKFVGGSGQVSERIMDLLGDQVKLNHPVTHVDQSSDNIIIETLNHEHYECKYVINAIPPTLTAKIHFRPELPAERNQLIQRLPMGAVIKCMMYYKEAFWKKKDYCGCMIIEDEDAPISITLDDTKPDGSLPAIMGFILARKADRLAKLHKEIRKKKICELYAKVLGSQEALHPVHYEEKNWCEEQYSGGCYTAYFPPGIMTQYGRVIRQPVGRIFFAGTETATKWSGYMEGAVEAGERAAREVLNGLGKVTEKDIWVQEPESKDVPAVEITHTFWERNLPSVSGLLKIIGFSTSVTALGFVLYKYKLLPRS

[3] = target: T3, monoamine oxidase B (MAO-B, extracted) (Homo sapiens, UniProt P27338); settings: for MAO-B %age inhibition: compounds not above 50% inhibition, test concentration not given
T3 sequence (P27338 1-520): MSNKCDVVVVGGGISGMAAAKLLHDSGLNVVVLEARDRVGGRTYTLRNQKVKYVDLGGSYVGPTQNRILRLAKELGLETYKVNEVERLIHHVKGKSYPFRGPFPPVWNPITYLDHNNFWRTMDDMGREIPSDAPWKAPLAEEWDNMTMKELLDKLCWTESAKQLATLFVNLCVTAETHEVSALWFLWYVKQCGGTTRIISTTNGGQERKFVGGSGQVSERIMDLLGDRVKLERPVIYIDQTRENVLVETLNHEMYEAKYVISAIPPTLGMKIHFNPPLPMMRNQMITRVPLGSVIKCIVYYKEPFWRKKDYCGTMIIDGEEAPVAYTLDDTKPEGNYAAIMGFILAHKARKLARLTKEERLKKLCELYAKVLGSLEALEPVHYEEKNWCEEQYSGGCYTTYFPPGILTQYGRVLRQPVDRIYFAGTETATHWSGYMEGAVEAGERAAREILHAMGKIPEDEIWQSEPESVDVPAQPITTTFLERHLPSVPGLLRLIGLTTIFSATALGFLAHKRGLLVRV

[4] = target: butyryl cholinesterase (BChE) (Homo sapiens, UniProt P06276); assay: Butyryl cholinesterase inhibition assay; assay type: biochemical; settings: for BChE %age inhibition: test concentration not given
[5] = target: T1, acetyl cholinesterase (AChE); assay: biochemical
[6] = target: T3, monoamine oxidase B (MAO-B, extracted); assay: biochemical
Method: (§1) Newly synthesized compounds were tested on monoamine oxidase A and B (extracted). […] Reaction mixture was composed of 100 μL of total assay volume having 30 μL buffer (pH 7.4), 10 μL test compounds, 10 μL of extracted enzyme (MAO-A: 13 μg mL^−1, MAO-B: 15 μg mL^−1), 30 μL of amplex red and 20 μL of substrate (p-tyramine). Initially reaction mixture having buffer + test compound + enzyme was incubated for 15 minutes for MAO-A And MAO-B. After Incubation the amplex red reagent was added followed by addition of substrate p-tyramine. The change in the fluorescence was determined by using fluorescence plate reader: FLUOstar® Omega (BMG Labtech GmbH, orten berg Germany). […] All experiments were performed in triplicate. IC50 values were calculated by non-linear curve fitting program PRISM 5.0 (GraphPad, San Diego, California, USA) where log inhibitor vs. response curve was generated.

[7] = target: T2, monoamine oxidase A (MAO-A, extracted); assay: biochemical
Method: as §1

Chain of butyryl cholinesterase (BChE) (P06276 29-602, species assumed): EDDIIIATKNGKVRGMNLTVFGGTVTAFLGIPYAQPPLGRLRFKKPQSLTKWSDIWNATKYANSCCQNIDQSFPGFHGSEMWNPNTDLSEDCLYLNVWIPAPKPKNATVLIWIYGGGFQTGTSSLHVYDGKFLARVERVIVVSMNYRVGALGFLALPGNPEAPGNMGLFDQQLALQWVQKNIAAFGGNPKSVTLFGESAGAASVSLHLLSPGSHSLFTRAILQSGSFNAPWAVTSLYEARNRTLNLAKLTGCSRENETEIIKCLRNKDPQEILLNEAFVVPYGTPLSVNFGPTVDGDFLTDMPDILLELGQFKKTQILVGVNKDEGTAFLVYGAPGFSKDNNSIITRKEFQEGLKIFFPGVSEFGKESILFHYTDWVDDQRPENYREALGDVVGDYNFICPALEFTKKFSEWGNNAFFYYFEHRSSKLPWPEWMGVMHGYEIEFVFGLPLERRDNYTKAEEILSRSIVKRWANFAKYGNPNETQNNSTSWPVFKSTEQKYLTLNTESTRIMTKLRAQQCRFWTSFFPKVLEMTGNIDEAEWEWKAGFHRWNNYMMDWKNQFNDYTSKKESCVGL
T1 sequence (P22303 32-614, species assumed): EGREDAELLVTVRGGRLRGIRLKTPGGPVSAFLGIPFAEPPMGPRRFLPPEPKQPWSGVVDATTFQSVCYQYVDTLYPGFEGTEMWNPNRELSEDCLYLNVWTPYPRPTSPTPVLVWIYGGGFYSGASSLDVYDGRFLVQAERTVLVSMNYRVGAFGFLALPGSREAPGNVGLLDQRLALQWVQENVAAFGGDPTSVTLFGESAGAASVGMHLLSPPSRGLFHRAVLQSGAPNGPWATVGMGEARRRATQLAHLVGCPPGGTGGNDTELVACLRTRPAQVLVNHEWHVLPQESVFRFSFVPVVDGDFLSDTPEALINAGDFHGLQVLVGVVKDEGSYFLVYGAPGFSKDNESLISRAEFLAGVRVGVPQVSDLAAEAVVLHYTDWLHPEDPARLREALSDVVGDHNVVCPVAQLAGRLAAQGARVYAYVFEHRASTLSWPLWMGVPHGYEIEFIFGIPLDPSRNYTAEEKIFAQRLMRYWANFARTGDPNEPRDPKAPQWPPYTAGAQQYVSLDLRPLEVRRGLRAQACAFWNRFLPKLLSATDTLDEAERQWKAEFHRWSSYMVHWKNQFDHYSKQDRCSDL

Row | SMILES | inhibition against AChE (in words) [1] | inhibition against MAO-A (in words) [2] | MAO-A %age inhibition [2] | MAO-B %age inhibition [3] | BChE %age inhibition [4] [% ^c] | IC50 [5] [nM] | AChE %age inhibition [1] [% ^c] | IC50 [6] [nM] | IC50 [7] [nM] | inhibition against MAO-B (in words) [3] | inhibition against BChE (in words) [4]
1 | Cc1ccc(F)c(-c2nnc(Nc3ccccc3F)o2)c1 [Compound 4h, 5-(2-Fluoro-5-methylphenyl)-N-(2-fluorophenyl)-1,3,4-oxadiazol-2-amine] | potent inhibition | weak inhibition | 21.87 ^c % | 29.36 ^c % | 12.43 | 1510 ± 462 |  |  |  |  | 
2 | N#Cc1cccc(Nc2nnc(-c3ccc(C(F)(F)F)cc3)o2)c1 [Compound 4a, 3-((5-(4-(Trifluoromethyl)phenyl)-1,3,4-oxadiazol-2-yl)amino)benzonitrile] | moderate to weak inhibition | weak inhibition | 33.23 ^c % | 37.06 ^c % | 20.54 |  | 42.32 |  |  |  | 
3 | Fc1ccccc1Nc1nnc(-c2ccc(C(F)(F)F)cc2)o1 [Compound 4i, N-(2-Fluorophenyl)-5-(4-(trifluoromethyl)phenyl)-1,3,4-oxadiazol-2-amine] | potent inhibition; also recorded: moderate to weak inhibition | weak inhibition | 38.11 ^c % | 32.53 ^c % | 21.45 |  | 37.12 |  |  |  | 
4 | Cc1ccc(Nc2nnc(-c3ccncc3)o2)c(C)c1 [Compound 4k, N-(2,4-Dimethylphenyl)-5-(pyridin-4-yl)-1,3,4-oxadiazol-2-amine] | moderate to weak inhibition; also recorded: lost its inhibitory effects | potent inhibition |  |  | 14.67 |  | 39.65 | 1100 ± 1160 | 3460 ± 2580 | strong inhibition; also recorded: restored its inhibitory effects | 
5 | FC(F)(F)c1ccc(-c2nnc(Nc3ccc(Br)cc3)o2)cc1 [Compound 4l, N-(4-Bromophenyl)-5-(4-(trifluoromethyl)phenyl)-1,3,4-oxadiazol-2-amine] | moderate to weak inhibition; also recorded: demolished the activity | weak inhibition; also recorded: demolished the activity | 36.81 ^c % | 24.86 ^c % | 26.91 |  | 44.56 |  |  | demolished the activity | demolished the activity
6 | Fc1cc(F)cc(Cc2nnc(Nc3ccccc3F)o2)c1 [Compound 4f, 5-(3,5-Difluorobenzyl)-N-(2-fluorophenyl)-1,3,4-oxadiazol-2-amine] | potent inhibition | weak inhibition | 34.82 ^c % | 39.46 ^c % | 22.61 | 2030 ± 434 |  |  |  |  | 
7 | Cc1ccccc1Nc1nnc(-c2ccccc2)o1 [Compound 4n, 5-Phenyl-N-(o-tolyl)-1,3,4-oxadiazol-2-amine] |  | weak inhibition | 21.07 ^c % | 18.47 ^c % | 28.87 |  |  |  |  |  | 
8 | Cc1c(F)cccc1-c1nnc(Nc2ccccc2)o1 [Compound 4o, 5-(3-Fluoro-2-methylphenyl)-N-phenyl-1,3,4-oxadiazol-2-amine] |  |  | 29.98 ^c % | 22.65 ^c % | 32.98 | 2320 ± 80 |  |  |  |  | 
9 | c1ccc(Nc2nnc(-c3ccncc3)o2)cc1 [Compound 4d, N-Phenyl-5-(pyridin-4-yl)-1,3,4-oxadiazol-2-amine] |  | potent inhibition; also recorded: promising inhibitory effects |  |  | 23.67 |  |  |  | 1440 ± 220 | strong inhibition; also recorded: promising inhibitory effects | 
10 | N#Cc1cccc(Nc2nnc(Cc3ccccc3C(F)(F)F)o2)c1 [Compound 4b, 3-((5-(2-(Trifluoromethyl)benzyl)-1,3,4-oxadiazol-2-yl)amino)benzonitrile] | moderate to weak inhibition |  |  | 35.73 ^c % | 23.65 |  | 31.34 |  | 2860 ± 1510 |  | 
11 | Fc1ccccc1Nc1nnc(Cc2ccccc2C(F)(F)F)o1 [Compound 4c, N-(2-Fluorophenyl)-5-(2-(trifluoromethyl)benzyl)-1,3,4-oxadiazol-2-amine] |  | potent inhibition |  |  | 14.76 |  |  |  | 1900 ± 250 | strong inhibition | 
12 | N#Cc1cccc(Nc2nnc(-c3ccncc3)o2)c1 [Compound 4j, 3-((5-(Pyridin-4-yl)-1,3,4-oxadiazol-2-yl)amino)benzonitrile] | potent inhibition | potent inhibition |  | 18.57 ^c % | 20.55 | 1560 ± 309 |  |  | 1020 ± 90 | lost its inhibitory effects | 
13 | CC(C)c1ccc(Nc2nnc(-c3ccc(C(F)(F)F)cc3)o2)cc1 [Compound 4m, N-(4-Isopropylphenyl)-5-(4-(trifluoromethyl)phenyl)-1,3,4-oxadiazol-2-amine] |  | potent inhibition |  |  | 15.78 |  |  |  | 110 ± 1 | strong inhibition | 
14 | Fc1cc(F)cc(Cc2nnc(Nc3ccc(F)cc3F)o2)c1 [Compound 4g, N-(2,4-Difluorophenyl)-5-(3,5-difluorobenzyl)-1,3,4-oxadiazol-2-amine] |  | potent inhibition |  |  | 15.23 | 1110 ± 80 |  | 2020 ± 1260 | 1210 ± 40 | strong inhibition | 
15 | Cc1ccc(Nc2nnc(-c3cccc(F)c3)o2)c(C)c1 [Compound 4e, N-(2,4-Dimethylphenyl)-5-(3-fluorophenyl)-1,3,4-oxadiazol-2-amine] | potent inhibition | potent inhibition |  |  | 10.54 | 1960 ± 176 |  | 1910 ± 890 | 1470 ± 450 | strong inhibition | 
